The target of this assay is T1, STAT5a (Homo sapiens, UniProt P42229).
T1 sequence (P42229 1-794): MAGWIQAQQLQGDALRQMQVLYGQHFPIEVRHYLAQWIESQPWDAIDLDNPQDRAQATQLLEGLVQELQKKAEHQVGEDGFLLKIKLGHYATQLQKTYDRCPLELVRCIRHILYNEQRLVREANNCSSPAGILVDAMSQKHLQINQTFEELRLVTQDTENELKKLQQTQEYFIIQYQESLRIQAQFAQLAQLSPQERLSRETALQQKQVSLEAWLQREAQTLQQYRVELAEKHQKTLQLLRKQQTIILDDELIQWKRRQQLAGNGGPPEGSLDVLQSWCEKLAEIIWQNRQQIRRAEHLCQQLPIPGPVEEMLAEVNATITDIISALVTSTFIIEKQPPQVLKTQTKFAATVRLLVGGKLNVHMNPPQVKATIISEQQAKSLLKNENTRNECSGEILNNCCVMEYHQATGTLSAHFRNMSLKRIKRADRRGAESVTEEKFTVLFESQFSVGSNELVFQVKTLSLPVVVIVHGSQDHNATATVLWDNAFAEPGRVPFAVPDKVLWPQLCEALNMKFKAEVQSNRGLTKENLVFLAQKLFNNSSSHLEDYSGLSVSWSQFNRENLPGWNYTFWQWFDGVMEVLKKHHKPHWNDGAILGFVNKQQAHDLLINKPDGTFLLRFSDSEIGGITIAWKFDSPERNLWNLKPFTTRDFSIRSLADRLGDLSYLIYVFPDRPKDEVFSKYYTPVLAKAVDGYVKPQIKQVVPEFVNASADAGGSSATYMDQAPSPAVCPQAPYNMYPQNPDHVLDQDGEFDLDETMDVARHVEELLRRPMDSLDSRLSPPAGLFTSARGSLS
In words: Competitive fluorescence polarization (FP) assay, STAT5a. It counts as binding. To be noted: no reducing agent, 1 h. From the text:
Screening of chemical libraries
Screening of chemical libraries comprising approximately 5000 known bioactive compounds in fluorescence polarization-based assays against phosphorylation-dependent protein-protein interaction domains, including STAT proteins, has been described.[1] PPADS was purchased from Sigma-Aldrich, and iso-PPADS from Bio-Techne.
Fluorescence polarization assays
Competitive fluorescence polarization (FP) assays for STAT1,[2] STAT3,[3] STAT4,[4] STAT5a,[5] STAT5b[6] and STAT6[1] were performed as previously described. Briefly, peptide binding to proteins was analyzed using the following carboxyfluorescein (CF) -labelled pepti des at a concentration of 10 nM: STAT1: 5-CF-GpYDKPHVL-OH, STAT3: 5-CF-GpYLPQTV -NH2, STAT4: 5-CF-GpYLPQNID-OH, STAT5a and STAT5b: 5-CF-GpYLVLDKW-OH, STAT6: 5- […]
CFGp[…]-OH. […] FP was measured using an Infinite F500 plate reader (Tecan) and measurements were converted into percent inhibition according to the binding curve equation. Curves were plotted and best fits calculated using OriginPro […]
Homogenous time-resolved fluorescence (HTRF) assays for STAT3, STAT4, STAT5a and STAT5b were carried out using Cisbio Monoclonal Antibody Anti-6His-Tb Gold as the fluorescence donor (Perkin Elmer) and the corresponding CF-labelled binding peptide as the acceptor. […] The average reading from 3 wells was obtained. […]
In general terms: Fluorescence polarisation rises when a labelled molecule tumbles more slowly, as on binding a larger partner.

Structures are written as SMILES.

For `Cc1nc(/N=N/c2ccc(S(=O)(=O)O)cc2S(=O)(=O)O)c(COP(=O)(O)O)c(C=O)c1O` [PPADS, pyridoxalphosphate‐6‐azophenyl‐2',4'‐disulfonic acid], the IC50 (commonly the concentration at which inhibition is half-maximal) is 1.5 ± 0.2 µM. `Cc1nc(/N=N/c2cc(S(=O)(=O)O)ccc2S(=O)(=O)O)c(COP(=O)(O)O)c(C=O)c1O` [iso‐PPADS] gave a concentration for half-maximal inhibition (IC50) of 4.8 ± 0.4 µM.

The values are drawn from article PMC12442245, “Activity Analysis of the P2X Receptor Antagonist PPADS against Signal Transducer and Activator of Transcription Proteins” (Chembiochem, 2025).
